Tests used:
Type in all cases: in vivo
[1] = test system: horses; experiment: Target Animal Safety (TAS) study / toxicity of formulations in horses; conditions: E-4021 containing meglumine, compared to E-4021 containing propylene glycol
Text: The drug product vehicle contains about 35-45 wt % alcohol, 46 wt % propylene glycol and 10 wt % WFI. […] Test doses (in horses) with the vehicle confirmed that the dose toxicity was due to the vehicle. More specifically, propylene glycol was believed to be the cause of toxicity.

[2] = test system: exercising horses; experiment: Simulated race test (SRT) on high-speed treadmill
Text: The purpose of this study was to determine the effects of intravenous administration of E-4021 on cardiorespiratory variables in exercising horses to facilitate the selection of a product dose for the control of hemorrhage associated with Exercise Induced Pulmonary Hemorrhage (EIPH). The formulation given was the propylene glycol formulation of Table 1.
Animals: The Rutgers University Institutional Animal Care and Facilities Committee approved all methods and procedures used in this experiment. Eight mature unfit Standardbred horses, 4 geldings and 4 mares were used in this study. The horses were healthy and acceptable for the study as determined by the study veterinarian. All horses underwent a physical examination to establish suitability for inclusion within the study. This included a physical examination and body weights. All of the horses were dewormed and vaccinated per standard veterinary practice. Animals were fed a maintenance ration of alfalfa/grass hay ad libitum and concentrate as needed. Water and mineral blocks were provided ad libitum. The horses were housed individually in 3×3 m stalls between 1600 to 0700 hours. They then performed their daily exercise followed by turnout in groups of 4 in 2 acres dry lot paddocks for ˜7 hrs/day.
General Study Design: There were four phases in this study detailed below. The horses performed conditioning exercise 4 d/week in a motorized equine exercise machine (Equi-cizer, Calgary, Canada) and heavy exercise 1 d/week on a high-speed treadmill (Sato I, Lexington Ky.) during Phase I. Heavy exercise prepared the horses for the later exercise tests performed during Phase Ib, Phase II, and Phase III of the experiment. The exercise tests were performed in the place of the heavy exercise training during those later three periods.
Phase II: This was the first part of the main study with test-article dosing of the horses (Weeks ≥12). This part of the experiment was conducted using a randomized semi-crossover design with each horse undergoing a control round within the first two weeks of the phase. Horses were randomly assigned to one of five treatments (CON; 50-45; 100-45; 50-90; 100-90). Control (CON) where no drug was administered; 50-45 where they were tested 45 minutes after receiving a dose of 50 mg; 100-45 where they were tested 45 minutes after receiving 100 mg of the test-article; 50-90 where they were tested 90 minutes after receiving a 50 mg dose; and 100-90 where they were tested 90 minutes after receiving a 100 mg dose. For this phase, the horses ran a simulated race test (SRT) every week on the heavy exercise days. Group A (n=4) horses ran their tests on Thursdays (mornings) and Group B (n=4) horses ran their tests on Fridays (mornings). All horses continued with light and moderate exercise as indicated for the other study days.
Phase III: This was the second part of the main study. This part of the experiment was conducted using a randomized crossover design where horses were initially assigned to one of four treatments (CON-B; 100-90B; 150-90; 200-90). Control (CON-B) where the horses received no drug; 100-90B where they were tested 90 minutes after receiving a 100 mg dose; 150-90 where they were tested 90 minutes after receiving a 150 mg dose; and 200-90 where they were tested 90 minutes after receiving a 200 mg dose. As with the other treatment phase the horses ran a weekly simulated race test (SRT) on the heavy exercise days. Group A (n=4) horses ran their tests on Thursdays (mornings) and Group B (n=4) horses ran their tests on Fridays (mornings).
Simulated Race Test (SRT): During the SRT, each horse ran at a speed calculated to correspond to 110% of the speed required to produce maximal oxygen uptake as measured during the GXTs performed during Phase Ib. […] Hemodynamic measurements were recorded, and blood samples were obtained to correspond with the end of the warm-up, at 1 minute and 2 minutes of the high-speed run, and at the end of the recovery period. […]

[3] = test system: exercising horses; experiment: Simulated race test (SRT) on high-speed treadmill; remark: listed apart in the source
[4] = 100 mg (15005, meglumine) 90 min prior to SRT
[5] = 100 mg (16006, meglumine), 90 min., 4 hrs., 24 hrs. and 48 hrs. post-injection

sodium 1-[6-chloro-4-(3,4-methylenedioxybenzyl)-aminoquinazolin-2-yl]piperidine-4-carboxylate sesquihydrate [E-4021]
Renal toxicity or blood in the urine [1]: did not have renal toxicity or blood in the urine
Attenuation of increased exercise-related pulmonary vascular pressures ([2]; 100 mg (approximately 500 kg horse), 90 minutes prior to intense exercise): greatest attenuation
Lower PA pressure after 2 min intense exercise ([2]; 100 mg dose given at 90 min, Phase II and III): ~30 mm Hg
Magnitude of PA pressure, 100 mg vs. 150 mg vs. 200 mg trials ([2]; 90 min before exercise, P>0.05, sesquihydrate): no differences
Lower PAP ([2]; Example 8, 100 mg at 90 minutes before exercise, propylene glycol formulation): ~30 mmHg
Mean pulmonary artery pressures compared to control ([2]; Phase III, 100, 150, 200 mg 90 min before, at 2 minutes of high intensity exercise, P<0.05): lower
Markers of aerobic and anaerobic performance ([2]; SRT, propylene glycol formulation): did not alter
Effect on plasma lactate concentration ([2]; SRTs, P>0.05): no effect
Effect on plasma calcium concentration ([2]; during the SRTs): no effect
Effect on plasma glucose concentration ([2]; during the SRTs): significant effect
Oxygen uptake compared to control [3, 4]: not significantly different
PAsO2 compared to control [3, 4]: not significantly different
Plasma lactate compared to control [3, 4]: not significantly different
Duration of pulmonary artery pressure reduction effect ([3]; 100 mg (16006, containing meglumine), post-injection for SRT): at least 24 hours
Oxygen uptake compared to control [3, 5]: not significantly different
PAsO2 compared to control [3, 5]: not significantly different
Plasma lactate compared to control [3, 5]: not significantly different
PA pressure during exercise, comparison of doses and times ([3]; 100 mg dose given 90 minutes prior to exercise, propylene glycol formulation, P<0.05): lowest PA pressure
Pulmonary artery pressures during intense exercise ([3]; IV, propylene glycol formulation of Table 1, Phase II and III, most apparent at 2-minute point of high intensity run): substantially and significantly lower
Effect on VO2 ([3]; SRTs in Phase II and Phase III): no effect
Pulmonary artery pressure after exercise at 48 hours ([3]; about 100 mg E-4021 containing meglumine (FIG. 21)): lower than the control
Pulmonary artery pressure compared to control ([3]; single dose 100 mg (15005, meglumine formulation of Table 3) 90 minutes prior to SRT): reduces

Reference: US20220387433A1, “TYPE V PHOSPHODIESTERASE INHIBITOR COMPOSITIONS, METHODS OF MAKING THEM AND METHODS OF USING THEM IN PREVENTING OR TREATING ELEVATED PULMONARY VASCULAR PRESSURE OR PULMONARY HEMORRHAGES” (American Regent, Inc., priority 2019, published 2022)
